The assay relates to HEK293 cells. The assay is described as follows: Preliminary screening as DNA vectors, GFP transfection of HEK293 cells. In kind it is cell-based. The settings on record: amino lipid/DOPE liposome with 75 ng plasmid DNA (psin-EGFP-IRES-Puro); number of GFP-expressing cells divided by total nuclei (Hoechst). In a few lines: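 Lipid + DOPE liposomes (NaOAc, pH 5.6) complexed w/ 75 ng psin-EGFP-IRES-Puro, 30 min RT; added to 3-5×10^4 HEK293/well, 37° C. Hoechst 0.2 μg/mL at 20-24 h, imaged after further 20-24 h. Efficiency = GFP+ cells / total nuclei.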

For the compound `CCCCCCCCCCCCCCCCNc1nc(NCCN(C)C)nc(SCCCCCCCCCCCCCC)n1` [S14N16 D1], the “Absolute DNA transfection efficiency in HEK293 cells” value (from here on “Absolute DNA transfection efficiency”) came out at 0.7%.

In the case of `CCCCCCCCCCCCCCCCNc1nc(NCCN2CCOCC2)nc(SCCCCCCCCCCCCCC)n1` [S14N16 D2], the “Absolute DNA transfection efficiency” value worked out at 0.0%.

Turning to `CCCCCCCCCCCCCCCCNc1nc(NCCN2CCCC2)nc(SCCCCCCCCCCCCCC)n1` [S14N16 D3], the “Absolute DNA transfection efficiency” value is given as 1.3%.

As to `CCCCCCCCCCCCCCCCNc1nc(NCCN2CCCCC2)nc(SCCCCCCCCCCCCCC)n1` [S14N16 D4], the “Absolute DNA transfection efficiency” value was determined as 1.9%.

Regarding `CCCCCCCCCCCCCCCCNc1nc(NCCN2CCN(C)CC2)nc(SCCCCCCCCCCCCCC)n1` [S14N16 D5], the “Absolute DNA transfection efficiency” value stood at 0.9%.

With `CCCCCCCCCCCCCCCCNc1nc(NCCCN(C)C)nc(SCCCCCCCCCCCCCC)n1` [S14N16 D6], the “Absolute DNA transfection efficiency” value amounted to 0.8%.

With `CCCCCCCCCCCCCCCCNc1nc(NCCN(CC)CC)nc(SCCCCCCCCCCCCCC)n1` [S14N16 D7], the “Absolute DNA transfection efficiency” value is 1.3%.

Consider `CCCCCCCCCCCCCCCCNc1nc(NCCCN2CCOCC2)nc(SCCCCCCCCCCCCCC)n1` [S14N16 D8], for which the “Absolute DNA transfection efficiency” value was determined as 0.1%.

Turning to `CCCCCCCCCCCCCCCCNc1nc(NCCCN2CCN(C)CC2)nc(SCCCCCCCCCCCCCC)n1` [S14N16 D9], the “Absolute DNA transfection efficiency” value was 0.9%.

With `CCCCCCCCCCCCCCCCNc1nc(NCC2CCN(C)CC2)nc(SCCCCCCCCCCCCCC)n1` [S14N16 D10], the “Absolute DNA transfection efficiency” value is 0.7%.

Turning to `CCCCCCCCCCCCCCCCCCNc1nc(NCCN(C)C)nc(SCCCCCCCCCCCCCC)n1` [S14N18 D1], the “Absolute DNA transfection efficiency” value came out at 0.9%.

Regarding `CCCCCCCCCCCCCCCCCCNc1nc(NCCN2CCOCC2)nc(SCCCCCCCCCCCCCC)n1` [S14N18 D2], the “Absolute DNA transfection efficiency” value came to 0.0%.

Consider `CCCCCCCCCCCCCCCCCCNc1nc(NCCN2CCCC2)nc(SCCCCCCCCCCCCCC)n1` [S14N18 D3], for which the “Absolute DNA transfection efficiency” value turned out to be 1.7%.

Consider `CCCCCCCCCCCCCCCCCCNc1nc(NCCN2CCCCC2)nc(SCCCCCCCCCCCCCC)n1` [S14N18 D4], for which the “Absolute DNA transfection efficiency” value was 0.7%.

Turning to `CCCCCCCCCCCCCCCCCCNc1nc(NCCN2CCN(C)CC2)nc(SCCCCCCCCCCCCCC)n1` [S14N18 D5], the “Absolute DNA transfection efficiency” value worked out at 0.6%.

`CCCCCCCCCCCCCCCCCCNc1nc(NCCCN(C)C)nc(SCCCCCCCCCCCCCC)n1` [S14N18 D6]: the “Absolute DNA transfection efficiency” value is reported as 0.9%.

With `CCCCCCCCCCCCCCCCCCNc1nc(NCCN(CC)CC)nc(SCCCCCCCCCCCCCC)n1` [S14N18 D7], the “Absolute DNA transfection efficiency” value turned out to be 1.2%.

For the compound `CCCCCCCCCCCCCCCCCCNc1nc(NCCCN2CCOCC2)nc(SCCCCCCCCCCCCCC)n1` [S14N18 D8], the “Absolute DNA transfection efficiency” value was 0.1%.

For the compound `CCCCCCCCCCCCCCCCCCNc1nc(NCCCN2CCN(C)CC2)nc(SCCCCCCCCCCCCCC)n1` [S14N18 D9], the “Absolute DNA transfection efficiency” value came out at 0.3%.

Regarding `CCCCCCCCCCCCCCCCCCNc1nc(NCC2CCN(C)CC2)nc(SCCCCCCCCCCCCCC)n1` [S14N18 D10], the “Absolute DNA transfection efficiency” value came to 0.1%.

For `CCCCCCCCCCCCCCSc1nc(NCCN(C)C)nc(N(CCCCCCCCCCCC)CCCCCCCCCCCC)n1` [S14^2N12 D1], the “Absolute DNA transfection efficiency” value is recorded as 0.3%.

In the case of `CCCCCCCCCCCCCCSc1nc(NCCN2CCOCC2)nc(N(CCCCCCCCCCCC)CCCCCCCCCCCC)n1` [S14^2N12 D2], the “Absolute DNA transfection efficiency” value is on record as 0.0%.

In the case of `CCCCCCCCCCCCCCSc1nc(NCCN2CCCC2)nc(N(CCCCCCCCCCCC)CCCCCCCCCCCC)n1` [S14^2N12 D3], the “Absolute DNA transfection efficiency” value is listed as 0.2%.

As to `CCCCCCCCCCCCCCSc1nc(NCCN2CCCCC2)nc(N(CCCCCCCCCCCC)CCCCCCCCCCCC)n1` [S14^2N12 D4], the “Absolute DNA transfection efficiency” value was 0.0%.

Take `CCCCCCCCCCCCCCSc1nc(NCCN2CCN(C)CC2)nc(N(CCCCCCCCCCCC)CCCCCCCCCCCC)n1` [S14^2N12 D5]: the “Absolute DNA transfection efficiency” value was determined as 0.0%.

As to `CCCCCCCCCCCCCCSc1nc(NCCCN(C)C)nc(N(CCCCCCCCCCCC)CCCCCCCCCCCC)n1` [S14^2N12 D6], the “Absolute DNA transfection efficiency” value was 0.2%.

With `CCCCCCCCCCCCCCSc1nc(NCCN(CC)CC)nc(N(CCCCCCCCCCCC)CCCCCCCCCCCC)n1` [S14^2N12 D7], the “Absolute DNA transfection efficiency” value is reported as 0.1%.

Consider `CCCCCCCCCCCCCCSc1nc(NCCCN2CCOCC2)nc(N(CCCCCCCCCCCC)CCCCCCCCCCCC)n1` [S14^2N12 D8], for which the “Absolute DNA transfection efficiency” value is given as 0.0%.

Take `CCCCCCCCCCCCCCSc1nc(NCCCN2CCN(C)CC2)nc(N(CCCCCCCCCCCC)CCCCCCCCCCCC)n1` [S14^2N12 D9]: the “Absolute DNA transfection efficiency” value is on record as 0.0%.

`CCCCCCCCCCCCCCSc1nc(NCC2CCN(C)CC2)nc(N(CCCCCCCCCCCC)CCCCCCCCCCCC)n1` [S14^2N12 D10]: the “Absolute DNA transfection efficiency” value is recorded as 0.0%.

Regarding `CCCCCCCCCCCCCCCSc1nc(NCCCCCC)nc(NCCN(C)C)n1` [S15N6 D1], the “Absolute DNA transfection efficiency” value worked out at 21.2%.

As to `CCCCCCCCCCCCCCCSc1nc(NCCCCCC)nc(NCCN2CCOCC2)n1` [S15N6 D2], the “Absolute DNA transfection efficiency” value is reported as 34.1%.

On to `CCCCCCCCCCCCCCCSc1nc(NCCCCCC)nc(NCCN2CCCC2)n1` [S15N6 D3], for which the “Absolute DNA transfection efficiency” value came to 32.4%.

As to `CCCCCCCCCCCCCCCSc1nc(NCCCCCC)nc(NCCN2CCCCC2)n1` [S15N6 D4], the “Absolute DNA transfection efficiency” value is 21.6%.

Consider `CCCCCCCCCCCCCCCSc1nc(NCCCCCC)nc(NCCN2CCN(C)CC2)n1` [S15N6 D5], for which the “Absolute DNA transfection efficiency” value was found to be 14.9%.

On to `CCCCCCCCCCCCCCCSc1nc(NCCCCCC)nc(NCCCN(C)C)n1` [S15N6 D6], for which the “Absolute DNA transfection efficiency” value stood at 34.2%.

For `CCCCCCCCCCCCCCCSc1nc(NCCCCCC)nc(NCCN(CC)CC)n1` [S15N6 D7], the “Absolute DNA transfection efficiency” value turned out to be 5.1%.

For `CCCCCCCCCCCCCCCSc1nc(NCCCCCC)nc(NCCCN2CCOCC2)n1` [S15N6 D8], the “Absolute DNA transfection efficiency” value was found to be 19.8%.

With `CCCCCCCCCCCCCCCSc1nc(NCCCCCC)nc(NCCCN2CCN(C)CC2)n1` [S15N6 D9], the “Absolute DNA transfection efficiency” value was determined as 15.4%.

On to `CCCCCCCCCCCCCCCSc1nc(NCCCCCC)nc(NCC2CCN(C)CC2)n1` [S15N6 D10], for which the “Absolute DNA transfection efficiency” value was 26.5%.

For the compound `CCCCCCCCCCCCCCCSc1nc(NCCCCCCC)nc(NCCN(C)C)n1` [S15N7 D1], the “Absolute DNA transfection efficiency” value stood at 18.2%.

Take `CCCCCCCCCCCCCCCSc1nc(NCCCCCCC)nc(NCCN2CCOCC2)n1` [S15N7 D2]: the “Absolute DNA transfection efficiency” value was 23.0%.

As to `CCCCCCCCCCCCCCCSc1nc(NCCCCCCC)nc(NCCN2CCCC2)n1` [S15N7 D3], the “Absolute DNA transfection efficiency” value was determined as 19.7%.

As for `CCCCCCCCCCCCCCCSc1nc(NCCCCCCC)nc(NCCN2CCCCC2)n1` [S15N7 D4], the “Absolute DNA transfection efficiency” value amounted to 8.1%.

For the compound `CCCCCCCCCCCCCCCSc1nc(NCCCCCCC)nc(NCCN2CCN(C)CC2)n1` [S15N7 D5], the “Absolute DNA transfection efficiency” value worked out at 12.9%.

Consider `CCCCCCCCCCCCCCCSc1nc(NCCCCCCC)nc(NCCCN(C)C)n1` [S15N7 D6], for which the “Absolute DNA transfection efficiency” value is on record as 32.1%.

For the compound `CCCCCCCCCCCCCCCSc1nc(NCCCCCCC)nc(NCCN(CC)CC)n1` [S15N7 D7], the “Absolute DNA transfection efficiency” value amounted to 13.3%.

With `CCCCCCCCCCCCCCCSc1nc(NCCCCCCC)nc(NCCCN2CCOCC2)n1` [S15N7 D8], the “Absolute DNA transfection efficiency” value turned out to be 14.5%.

For the compound `CCCCCCCCCCCCCCCSc1nc(NCCCCCCC)nc(NCCCN2CCN(C)CC2)n1` [S15N7 D9], the “Absolute DNA transfection efficiency” value amounted to 17.1%.

`CCCCCCCCCCCCCCCSc1nc(NCCCCCCC)nc(NCC2CCN(C)CC2)n1` [S15N7 D10]: the “Absolute DNA transfection efficiency” value is listed as 33.4%.

For the compound `CCCCCCCCCCCCCCCSc1nc(NCCCCCCCC)nc(NCCN(C)C)n1` [S15N8 D1], the “Absolute DNA transfection efficiency” value stood at 8.9%.

On to `CCCCCCCCCCCCCCCSc1nc(NCCCCCCCC)nc(NCCN2CCOCC2)n1` [S15N8 D2], for which the “Absolute DNA transfection efficiency” value worked out at 19.3%.

`CCCCCCCCCCCCCCCSc1nc(NCCCCCCCC)nc(NCCN2CCCC2)n1` [S15N8 D3]: the “Absolute DNA transfection efficiency” value stood at 12.7%.

Turning to `CCCCCCCCCCCCCCCSc1nc(NCCCCCCCC)nc(NCCN2CCCCC2)n1` [S15N8 D4], the “Absolute DNA transfection efficiency” value was 3.0%.

As for `CCCCCCCCCCCCCCCSc1nc(NCCCCCCCC)nc(NCCN2CCN(C)CC2)n1` [S15N8 D5], the “Absolute DNA transfection efficiency” value came to 17.3%.

Regarding `CCCCCCCCCCCCCCCSc1nc(NCCCCCCCC)nc(NCCCN(C)C)n1` [S15N8 D6], the “Absolute DNA transfection efficiency” value worked out at 23.9%.

Turning to `CCCCCCCCCCCCCCCSc1nc(NCCCCCCCC)nc(NCCN(CC)CC)n1` [S15N8 D7], the “Absolute DNA transfection efficiency” value turned out to be 6.7%.

Turning to `CCCCCCCCCCCCCCCSc1nc(NCCCCCCCC)nc(NCCCN2CCOCC2)n1` [S15N8 D8], the “Absolute DNA transfection efficiency” value amounted to 7.9%.

For `CCCCCCCCCCCCCCCSc1nc(NCCCCCCCC)nc(NCCCN2CCN(C)CC2)n1` [S15N8 D9], the “Absolute DNA transfection efficiency” value was 11.6%.

`CCCCCCCCCCCCCCCSc1nc(NCCCCCCCC)nc(NCC2CCN(C)CC2)n1` [S15N8 D10]: the “Absolute DNA transfection efficiency” value turned out to be 19.4%.

For the compound `CCCCCCCCCCCCCCCSc1nc(NCCCCCCCCC)nc(NCCN(C)C)n1` [S15N9 D1], the “Absolute DNA transfection efficiency” value is on record as 21.3%.

In the case of `CCCCCCCCCCCCCCCSc1nc(NCCCCCCCCC)nc(NCCN2CCOCC2)n1` [S15N9 D2], the “Absolute DNA transfection efficiency” value amounted to 9.7%.

Take `CCCCCCCCCCCCCCCSc1nc(NCCCCCCCCC)nc(NCCN2CCCC2)n1` [S15N9 D3]: the “Absolute DNA transfection efficiency” value is listed as 30.1%.

The values above are taken from patent publication US20230123334A1, “AMINO LIPID COMPOUND, PREPARATION METHOD THEREFOR, AND APPLICATION THEREOF” (SHENZHEN SHENXIN BIOTECHNOLOGY CO., LTD., priority 2020, published 2023).
